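1) Cells in 96-well plates. 2) Compound, 48 h, 5 concentrations. 3) Linear interpolation between surrounding doses. 4) Unreached endpoint = highest concentration. Abbreviation: GI50, concentration required for 50% inhibition of growth.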 Active and inactive are the calls of the source. No stated cut-off is given here; in the data, active = GI50 up to about 1.1 µM and inactive = higher.
Legend:
Experiment in all cases: NCI tumour cell line growth inhibition, 48 h
NCI-H226 = test system: NCI-H226
CCRF-CEM = test system: CCRF-CEM
CAKI-1 = test system: CAKI-1
RPMI-8226 = test system: RPMI-8226
OVCAR-5 = test system: OVCAR-5
PC-3 = test system: PC-3
HCT-15 = test system: HCT-15
NCI-H23 = test system: NCI-H23
MCF7 = test system: MCF7
UO-31 = test system: UO-31
DU-145 = test system: DU-145
COLO 205 = test system: COLO 205
HCC 2998 = test system: HCC 2998
EKVX = test system: EKVX
SF-539 = test system: SF-539
BT-549 = test system: BT-549
MDA-MB-435 = test system: MDA-MB-435
Hs-578T = test system: Hs-578T
OVCAR-4 = test system: OVCAR-4
NCI-H522 = test system: NCI-H522
SR = test system: SR
TK-10 = test system: TK-10
SN12C = test system: SN12C
HOP-92 = test system: HOP-92
HOP-62 = test system: HOP-62
MOLT-4 = test system: MOLT-4
A498 = test system: A498
UACC-257 = test system: UACC-257
M14 = test system: M14
SW-620 = test system: SW-620
SK-MEL-5 = test system: SK-MEL-5
SK-OV-3 = test system: SK-OV-3
IGROV-1 = test system: IGROV-1
KM12 = test system: KM12
Malme-3M = test system: Malme-3M
SK-MEL-28 = test system: SK-MEL-28
UACC-62 = test system: UACC-62
SK-MEL-2 = test system: SK-MEL-2
MDA-N = test system: MDA-N
OVCAR-3 = test system: OVCAR-3
MDA-MB-231 = test system: MDA-MB-231
A549 = test system: A549
LOX IMVI = test system: LOX IMVI
HCT-116 = test system: HCT-116
NCI/ADR-RES = test system: NCI/ADR-RES
SF-295 = test system: SF-295
HT-29 = test system: HT-29
SNB-75 = test system: SNB-75
OVCAR-8 = test system: OVCAR-8
HL-60 = test system: HL-60
T47D = test system: T47D
U-251 = test system: U-251
SNB-19 = test system: SNB-19
ACHN = test system: ACHN
786-0 = test system: 786-0
NCI-H460 = test system: NCI-H460
RXF 393 = test system: RXF 393
SF-268 = test system: SF-268
K562 = test system: K562

Q: Which results are given for [N-]=[N+]=Nc1c([N+](=O)[O-])c(Cl)nc2ccccc12?
A: GI50 (NCI-H226): 10.6 µM (inactive); GI50 (CCRF-CEM): 0.376 µM (active); GI50 (CAKI-1): 0.971 µM (active); GI50 (RPMI-8226): 1.77 µM (inactive); GI50 (OVCAR-5): 2.44 µM (inactive); GI50 (PC-3): 1.91 µM (inactive); GI50 (HCT-15): 1.83 µM; GI50 (NCI-H23): 2.6 µM (inactive); GI50 (MCF7): 1.54 µM (inactive); GI50 (UO-31): 0.632 µM (active); GI50 (DU-145): 2.13 µM (inactive); GI50 (COLO 205): 1.74 µM (inactive); GI50 (HCC 2998): 1.98 µM (inactive); GI50 (EKVX): 3.01 µM (inactive); GI50 (SF-539): 3.92 µM (inactive); GI50 (BT-549): 1.74 µM (inactive); GI50 (MDA-MB-435): 2.38 µM (inactive); GI50 (Hs-578T): 3.12 µM (inactive); GI50 (OVCAR-4): 1.9 µM (inactive); GI50 (NCI-H522): 0.293 µM (active); GI50 (SR): 0.604 µM (active); GI50 (TK-10): 2.25 µM (inactive); GI50 (SN12C): 2.23 µM (inactive); GI50 (HOP-92): 1.95 µM (inactive); GI50 (HOP-62): 19.8 µM (inactive); GI50 (MOLT-4): 0.587 µM (active); GI50 (A498): 13.7 µM (inactive); GI50 (UACC-257): 1.69 µM (inactive); GI50 (M14): 1.44 µM (inactive); GI50 (SW-620): 0.48 µM (active); GI50 (SK-MEL-5): 8.99 µM (inactive); GI50 (SK-OV-3): 14.5 µM (inactive); GI50 (IGROV-1): 2.09 µM (inactive); GI50 (KM12): 7.16 µM (inactive); GI50 (Malme-3M): 1.69 µM (inactive); GI50 (SK-MEL-28): 2.48 µM (inactive); GI50 (UACC-62): 4.37 µM (inactive); GI50 (SK-MEL-2): 1.4 µM (inactive); GI50 (MDA-N): 2.38 µM (inactive); GI50 (OVCAR-3): 1.41 µM (inactive); GI50 (MDA-MB-231): 1.85 µM (inactive); GI50 (A549): 16.8 µM (inactive); GI50 (LOX IMVI): 1.59 µM (inactive); GI50 (HCT-116): 1.63 µM (inactive); GI50 (NCI/ADR-RES): 2.56 µM (inactive); GI50 (SF-295): 19.4 µM (inactive); GI50 (HT-29): 2.18 µM (inactive); GI50 (SNB-75): 8.93 µM (inactive); GI50 (OVCAR-8): 1.87 µM (inactive); GI50 (HL-60): 0.119 µM (active); GI50 (T47D): 2.07 µM (inactive); GI50 (U-251): 5.96 µM (inactive); GI50 (SNB-19): 14.4 µM (inactive); GI50 (ACHN): 1.76 µM (inactive); GI50 (786-0): 0.541 µM (active); GI50 (NCI-H460): 10.8 µM (inactive); GI50 (RXF 393): 1.86 µM (inactive); GI50 (SF-268): 3.47 µM (inactive); GI50 (K562): 0.463 µM (active)

Q: Which results are given for NNC(=O)CC(=O)Nc1cccc(Cl)c1?
A: GI50 (NCI-H226): > 100 µM (inactive); GI50 (CCRF-CEM): > 100 µM (inactive); GI50 (CAKI-1): > 100 µM (inactive); GI50 (RPMI-8226): > 100 µM (inactive); GI50 (OVCAR-5): > 100 µM (inactive); GI50 (PC-3): > 100 µM (inactive); GI50 (HCT-15): > 100 µM; GI50 (NCI-H23): > 100 µM (inactive); GI50 (MCF7): > 100 µM (inactive); GI50 (UO-31): > 100 µM (inactive); GI50 (DU-145): > 100 µM (inactive); GI50 (COLO 205): > 100 µM (inactive); GI50 (HCC 2998): > 100 µM (inactive); GI50 (EKVX): > 100 µM (inactive); GI50 (SF-539): > 100 µM (inactive); GI50 (BT-549): > 100 µM (inactive); GI50 (MDA-MB-435): > 100 µM (inactive); GI50 (Hs-578T): > 100 µM (inactive); GI50 (OVCAR-4): > 100 µM (inactive); GI50 (NCI-H522): 25.4 µM (inactive); GI50 (SR): > 100 µM (inactive); GI50 (TK-10): > 100 µM (inactive); GI50 (SN12C): > 100 µM (inactive); GI50 (HOP-92): 47.3 µM (inactive); GI50 (HOP-62): > 100 µM (inactive); GI50 (MOLT-4): > 100 µM (inactive); GI50 (A498): > 100 µM (inactive); GI50 (UACC-257): 25.3 µM (inactive); GI50 (SW-620): > 100 µM (inactive); GI50 (SK-MEL-5): > 100 µM (inactive); GI50 (SK-OV-3): > 100 µM (inactive); GI50 (IGROV-1): > 100 µM (inactive); GI50 (KM12): > 100 µM (inactive); GI50 (Malme-3M): > 100 µM (inactive); GI50 (SK-MEL-28): > 100 µM (inactive); GI50 (UACC-62): > 100 µM (inactive); GI50 (SK-MEL-2): > 100 µM (inactive); GI50 (MDA-N): > 100 µM (inactive); GI50 (OVCAR-3): > 100 µM (inactive); GI50 (MDA-MB-231): > 100 µM (inactive); GI50 (A549): > 100 µM (inactive); GI50 (LOX IMVI): > 100 µM (inactive); GI50 (HCT-116): > 100 µM (inactive); GI50 (NCI/ADR-RES): 2.21 µM (inactive); GI50 (SF-295): > 100 µM (inactive); GI50 (HT-29): > 100 µM (inactive); GI50 (SNB-75): > 100 µM (inactive); GI50 (OVCAR-8): > 100 µM (inactive); GI50 (HL-60): > 100 µM (inactive); GI50 (T47D): > 100 µM (inactive); GI50 (U-251): > 100 µM (inactive); GI50 (SNB-19): > 100 µM (inactive); GI50 (ACHN): > 100 µM (inactive); GI50 (786-0): > 100 µM (inactive); GI50 (NCI-H460): > 100 µM (inactive); GI50 (RXF 393): > 100 µM (inactive); GI50 (SF-268): > 100 µM (inactive); GI50 (K562): > 100 µM (inactive)

Q: Which results are given for O=C(C=P(c1ccccc1)(c1ccccc1)c1ccccc1)c1cccc(-c2cccc([N+](=O)[O-])c2)c1?
A: GI50 (CCRF-CEM): 2.55 µM (inactive); GI50 (CAKI-1): 1.86 µM (inactive); GI50 (RPMI-8226): 1.98 µM (inactive); GI50 (OVCAR-5): 3.1 µM (inactive); GI50 (PC-3): 2.84 µM (inactive); GI50 (HCT-15): 3.16 µM; GI50 (NCI-H23): 3.44 µM (inactive); GI50 (MCF7): 3.47 µM (inactive); GI50 (UO-31): 3.11 µM (inactive); GI50 (DU-145): 6.78 µM (inactive); GI50 (COLO 205): 1.53 µM (inactive); GI50 (HCC 2998): 3.27 µM (inactive); GI50 (EKVX): 4.3 µM (inactive); GI50 (SF-539): 4.56 µM (inactive); GI50 (BT-549): 4.74 µM (inactive); GI50 (MDA-MB-435): 2.68 µM (inactive); GI50 (Hs-578T): 3.44 µM (inactive); GI50 (OVCAR-4): 2.45 µM (inactive); GI50 (NCI-H522): 1.86 µM (inactive); GI50 (SR): 2.58 µM (inactive); GI50 (TK-10): 3.18 µM (inactive); GI50 (SN12C): 2.97 µM (inactive); GI50 (HOP-92): 1.32 µM (inactive); GI50 (HOP-62): 8.04 µM (inactive); GI50 (MOLT-4): 1.68 µM (inactive); GI50 (A498): 1.83 µM (inactive); GI50 (M14): 3.13 µM (inactive); GI50 (SW-620): 3.33 µM (inactive); GI50 (SK-MEL-5): 2.37 µM (inactive); GI50 (SK-OV-3): 2.86 µM (inactive); GI50 (IGROV-1): 2.94 µM (inactive); GI50 (KM12): 3.67 µM (inactive); GI50 (Malme-3M): 2.86 µM (inactive); GI50 (SK-MEL-28): 3.1 µM (inactive); GI50 (UACC-62): 1.72 µM (inactive); GI50 (MDA-N): 2.49 µM (inactive); GI50 (OVCAR-3): 3.03 µM (inactive); GI50 (MDA-MB-231): 2 µM (inactive); GI50 (A549): 3.62 µM (inactive); GI50 (LOX IMVI): 2.56 µM (inactive); GI50 (HCT-116): 3.55 µM (inactive); GI50 (NCI/ADR-RES): 3.42 µM (inactive); GI50 (SF-295): 3.18 µM (inactive); GI50 (HT-29): 1.8 µM (inactive); GI50 (SNB-75): 1.51 µM (inactive); GI50 (OVCAR-8): 3.57 µM (inactive); GI50 (HL-60): 1.76 µM (inactive); GI50 (T47D): 4.9 µM (inactive); GI50 (U-251): 3.89 µM (inactive); GI50 (SNB-19): 4.21 µM (inactive); GI50 (ACHN): 2.89 µM (inactive); GI50 (786-0): 4.24 µM (inactive); GI50 (NCI-H460): 2.88 µM (inactive); GI50 (RXF 393): 5.66 µM (inactive); GI50 (SF-268): 3.93 µM (inactive); GI50 (K562): 2.99 µM (inactive)

Reference: ChEMBL document CHEMBL1201862, “PubChem BioAssay data set” (2004)
